# Laboratory results published in publication PMC5564600 (Oncotarget, 2017).
# What was measured:
# Experiment in all cases: biochemical
# Format in all cases: binding
# [1] = target: T1, panel of 442 kinases (Homo sapiens, UniProt O95819); settings: kinase MAP4K4; for remaining activity at 1 µM: read-out: % of control at 1 µM
# T1 construct: purchased Ambit Biosciences (scanMAXX KINOMEscan)
# [2] = target: T2, panel of 442 kinases (Homo sapiens, UniProt P00533); settings: EGFR; for remaining activity at 1 µM: read-out: % of control at 1 µM
# T2 construct: purchased Ambit Biosciences (scanMAXX KINOMEscan)
# [3] = target: T3, panel of 442 kinases (Homo sapiens, UniProt P08581); settings: kinase MET; for remaining activity at 1 µM: read-out: % of control at 1 µM
# T3 construct: purchased Ambit Biosciences (scanMAXX KINOMEscan)
# [4] = target: T4, panel of 442 kinases (Homo sapiens, UniProt P08581, M1250T); settings: kinase MET(M1250T); for remaining activity at 1 µM: read-out: % of control at 1 µM
# T4 construct: purchased Ambit Biosciences (scanMAXX KINOMEscan)
# [5] = target: T5, panel of 442 kinases (Homo sapiens, UniProt P12931); settings: kinase SRC; for remaining activity at 1 µM: read-out: SRC (% of control at 1 µM)
# T5 construct: purchased Ambit Biosciences (scanMAXX KINOMEscan)
# [6] = target: T6, panel of 442 kinases (Homo sapiens, UniProt P22455); settings: FGFR4; for remaining activity at 1 µM: read-out: % of control at 1 µM
# T6 construct: purchased Ambit Biosciences (scanMAXX KINOMEscan)
# [7] = target: T7, panel of 442 kinases (Homo sapiens, UniProt P36894); settings: BMPR1A; for remaining activity at 1 µM: read-out: % of control at 1 µM
# T7 construct: purchased Ambit Biosciences (scanMAXX KINOMEscan)
# [8] = target: T8, panel of 442 kinases (Homo sapiens, UniProt P48729); settings: CSNK1A1; for remaining activity at 1 µM: read-out: % of control at 1 µM
# T8 construct: purchased Ambit Biosciences (scanMAXX KINOMEscan)
# [9] = target: T9, panel of 442 kinases (Homo sapiens, UniProt P53355); settings: DAPK1; for remaining activity at 1 µM: read-out: % of control at 1 µM
# T9 construct: purchased Ambit Biosciences (scanMAXX KINOMEscan)
# [10] = target: T10, panel of 442 kinases (Homo sapiens, UniProt Q13164); settings: ERK5; for remaining activity at 1 µM: read-out: % of control at 1 µM
# T10 construct: purchased Ambit Biosciences (scanMAXX KINOMEscan)
# [11] = target: T11, panel of 442 kinases (Homo sapiens, UniProt Q13177); settings: kinase PAK2; for remaining activity at 1 µM: read-out: % of control at 1 µM
# T11 construct: purchased Ambit Biosciences (scanMAXX KINOMEscan)
# [12] = target: T12, panel of 442 kinases (Homo sapiens, UniProt Q7L7X3); settings: kinase TAOK1; for remaining activity at 1 µM: read-out: TAOK1 (% of control at 1 µM)
# T12 construct: purchased Ambit Biosciences (scanMAXX KINOMEscan)
# T12 sequence (Q7L7X3 1-1001): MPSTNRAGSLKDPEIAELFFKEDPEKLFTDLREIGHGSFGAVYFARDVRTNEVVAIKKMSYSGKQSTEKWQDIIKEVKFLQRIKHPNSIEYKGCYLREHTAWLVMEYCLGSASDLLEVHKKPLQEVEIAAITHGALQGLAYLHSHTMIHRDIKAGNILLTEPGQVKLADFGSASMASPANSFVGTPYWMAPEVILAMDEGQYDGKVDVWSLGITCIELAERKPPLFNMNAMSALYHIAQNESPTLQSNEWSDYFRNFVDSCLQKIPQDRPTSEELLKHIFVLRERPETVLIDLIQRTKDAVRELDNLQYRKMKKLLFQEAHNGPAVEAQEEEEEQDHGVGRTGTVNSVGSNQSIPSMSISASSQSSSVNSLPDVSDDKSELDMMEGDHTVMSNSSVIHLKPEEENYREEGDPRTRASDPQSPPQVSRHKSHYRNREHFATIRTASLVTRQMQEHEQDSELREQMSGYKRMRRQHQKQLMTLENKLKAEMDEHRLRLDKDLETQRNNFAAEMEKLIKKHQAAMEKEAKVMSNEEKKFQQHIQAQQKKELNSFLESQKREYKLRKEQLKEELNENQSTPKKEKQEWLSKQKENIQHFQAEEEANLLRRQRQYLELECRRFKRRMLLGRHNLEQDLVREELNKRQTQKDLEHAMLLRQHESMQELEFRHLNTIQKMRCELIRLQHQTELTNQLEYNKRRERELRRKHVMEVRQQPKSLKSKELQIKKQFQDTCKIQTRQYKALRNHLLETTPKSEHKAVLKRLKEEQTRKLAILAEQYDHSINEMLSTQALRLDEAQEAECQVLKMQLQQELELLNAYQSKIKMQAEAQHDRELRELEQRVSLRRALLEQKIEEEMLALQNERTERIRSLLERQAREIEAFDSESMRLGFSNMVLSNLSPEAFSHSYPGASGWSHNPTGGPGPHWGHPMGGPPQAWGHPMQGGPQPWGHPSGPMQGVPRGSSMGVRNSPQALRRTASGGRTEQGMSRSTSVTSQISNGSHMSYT
# [13] = target: T13, panel of 442 kinases (Homo sapiens, UniProt Q8NI60); settings: ADCK3; for remaining activity at 1 µM: read-out: % of control at 1 µM
# T13 construct: purchased Ambit Biosciences (scanMAXX KINOMEscan)
# [14] = target: T14, panel of 442 kinases (Homo sapiens, UniProt Q8TDR2); settings: kinase STK35; for remaining activity at 1 µM: read-out: STK35 (% of control at 1 µM)
# T14 construct: purchased Ambit Biosciences (scanMAXX KINOMEscan)
# [15] = target: T15, panel of 442 kinases (Homo sapiens, UniProt Q9Y6R4); settings: kinase MAP3K4; for remaining activity at 1 µM: read-out: % of control at 1 µM
# T15 construct: purchased Ambit Biosciences (scanMAXX KINOMEscan)
# [16] = 10 µM, read-out: % of control at 10 µM
# T1 sequence (O95819 whole entry): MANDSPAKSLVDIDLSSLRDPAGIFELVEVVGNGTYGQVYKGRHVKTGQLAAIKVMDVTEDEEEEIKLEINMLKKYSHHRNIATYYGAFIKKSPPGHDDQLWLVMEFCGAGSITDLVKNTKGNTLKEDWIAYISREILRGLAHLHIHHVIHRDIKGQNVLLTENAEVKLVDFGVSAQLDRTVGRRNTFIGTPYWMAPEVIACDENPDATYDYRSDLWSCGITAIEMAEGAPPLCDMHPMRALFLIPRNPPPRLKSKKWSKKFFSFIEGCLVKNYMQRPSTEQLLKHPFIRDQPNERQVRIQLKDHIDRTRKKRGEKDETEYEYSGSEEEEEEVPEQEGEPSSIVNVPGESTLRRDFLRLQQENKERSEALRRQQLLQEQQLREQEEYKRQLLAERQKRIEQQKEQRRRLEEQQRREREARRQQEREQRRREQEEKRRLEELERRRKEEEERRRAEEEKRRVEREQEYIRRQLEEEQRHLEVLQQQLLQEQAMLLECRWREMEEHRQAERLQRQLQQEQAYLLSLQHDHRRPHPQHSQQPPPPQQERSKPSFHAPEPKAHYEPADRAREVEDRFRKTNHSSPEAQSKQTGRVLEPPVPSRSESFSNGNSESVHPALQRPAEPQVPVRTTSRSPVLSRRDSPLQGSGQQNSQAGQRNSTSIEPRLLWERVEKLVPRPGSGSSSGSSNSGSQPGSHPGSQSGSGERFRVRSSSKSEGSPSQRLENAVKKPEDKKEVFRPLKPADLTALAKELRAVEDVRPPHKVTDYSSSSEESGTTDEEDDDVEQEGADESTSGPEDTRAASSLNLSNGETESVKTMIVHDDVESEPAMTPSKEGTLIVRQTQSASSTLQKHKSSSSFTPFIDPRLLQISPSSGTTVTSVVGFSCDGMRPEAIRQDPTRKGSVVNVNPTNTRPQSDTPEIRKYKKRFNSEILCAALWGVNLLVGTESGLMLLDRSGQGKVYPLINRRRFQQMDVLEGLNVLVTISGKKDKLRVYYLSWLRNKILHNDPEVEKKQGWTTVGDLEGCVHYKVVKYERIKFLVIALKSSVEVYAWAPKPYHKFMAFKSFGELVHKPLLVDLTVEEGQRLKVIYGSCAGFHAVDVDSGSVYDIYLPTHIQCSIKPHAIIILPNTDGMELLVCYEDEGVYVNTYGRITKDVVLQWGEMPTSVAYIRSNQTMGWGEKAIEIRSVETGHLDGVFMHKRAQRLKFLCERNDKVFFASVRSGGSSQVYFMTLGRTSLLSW
# T13 sequence (Q8NI60 163-647): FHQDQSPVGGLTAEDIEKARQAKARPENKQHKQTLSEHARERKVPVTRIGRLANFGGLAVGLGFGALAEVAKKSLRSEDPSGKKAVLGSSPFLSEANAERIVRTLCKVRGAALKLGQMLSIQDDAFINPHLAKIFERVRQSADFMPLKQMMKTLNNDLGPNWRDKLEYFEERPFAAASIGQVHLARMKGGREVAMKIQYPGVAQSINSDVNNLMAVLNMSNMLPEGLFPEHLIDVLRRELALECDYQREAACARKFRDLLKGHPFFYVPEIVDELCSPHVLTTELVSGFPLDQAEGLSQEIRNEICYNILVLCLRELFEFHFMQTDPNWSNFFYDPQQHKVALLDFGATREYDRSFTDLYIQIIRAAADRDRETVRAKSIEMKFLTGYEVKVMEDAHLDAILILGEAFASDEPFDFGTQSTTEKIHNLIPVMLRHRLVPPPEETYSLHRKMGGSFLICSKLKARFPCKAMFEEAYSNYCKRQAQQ
# T4 sequence (P08581 25-1390 M1250T): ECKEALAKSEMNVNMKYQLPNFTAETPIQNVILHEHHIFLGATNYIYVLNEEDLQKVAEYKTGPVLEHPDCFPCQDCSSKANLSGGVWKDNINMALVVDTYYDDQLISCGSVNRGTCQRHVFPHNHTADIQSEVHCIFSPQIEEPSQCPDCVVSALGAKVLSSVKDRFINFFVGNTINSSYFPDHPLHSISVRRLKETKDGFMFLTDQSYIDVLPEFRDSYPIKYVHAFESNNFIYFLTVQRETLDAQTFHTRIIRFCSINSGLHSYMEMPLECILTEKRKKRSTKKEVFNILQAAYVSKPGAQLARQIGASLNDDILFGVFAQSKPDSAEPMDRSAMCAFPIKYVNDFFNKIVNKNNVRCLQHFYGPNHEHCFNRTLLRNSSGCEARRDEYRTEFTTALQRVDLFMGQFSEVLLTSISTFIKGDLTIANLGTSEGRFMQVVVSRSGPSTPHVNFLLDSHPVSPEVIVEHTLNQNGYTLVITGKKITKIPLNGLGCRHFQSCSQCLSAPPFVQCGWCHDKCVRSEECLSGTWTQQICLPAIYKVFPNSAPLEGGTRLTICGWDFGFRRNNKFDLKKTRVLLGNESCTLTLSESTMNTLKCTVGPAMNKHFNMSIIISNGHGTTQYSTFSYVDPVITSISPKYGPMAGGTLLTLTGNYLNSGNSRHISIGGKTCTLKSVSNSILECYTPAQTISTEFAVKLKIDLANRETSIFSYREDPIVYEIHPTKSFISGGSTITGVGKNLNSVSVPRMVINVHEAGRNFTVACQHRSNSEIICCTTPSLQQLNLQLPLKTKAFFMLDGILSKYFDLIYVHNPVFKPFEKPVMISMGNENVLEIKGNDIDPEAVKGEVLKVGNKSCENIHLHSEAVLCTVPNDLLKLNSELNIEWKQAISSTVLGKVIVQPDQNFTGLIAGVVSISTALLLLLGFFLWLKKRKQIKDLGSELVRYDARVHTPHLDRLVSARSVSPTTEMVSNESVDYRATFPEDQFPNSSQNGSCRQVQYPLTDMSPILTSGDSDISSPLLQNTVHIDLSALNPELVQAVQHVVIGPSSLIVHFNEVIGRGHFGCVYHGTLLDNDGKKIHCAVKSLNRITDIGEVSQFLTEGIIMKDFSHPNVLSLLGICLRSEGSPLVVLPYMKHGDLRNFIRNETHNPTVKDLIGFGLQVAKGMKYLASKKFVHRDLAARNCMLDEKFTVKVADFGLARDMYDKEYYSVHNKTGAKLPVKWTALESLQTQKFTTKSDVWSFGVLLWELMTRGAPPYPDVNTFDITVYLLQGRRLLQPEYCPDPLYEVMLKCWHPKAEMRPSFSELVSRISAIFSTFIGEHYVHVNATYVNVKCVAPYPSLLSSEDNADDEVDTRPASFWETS
# T6 sequence (P22455 22-802): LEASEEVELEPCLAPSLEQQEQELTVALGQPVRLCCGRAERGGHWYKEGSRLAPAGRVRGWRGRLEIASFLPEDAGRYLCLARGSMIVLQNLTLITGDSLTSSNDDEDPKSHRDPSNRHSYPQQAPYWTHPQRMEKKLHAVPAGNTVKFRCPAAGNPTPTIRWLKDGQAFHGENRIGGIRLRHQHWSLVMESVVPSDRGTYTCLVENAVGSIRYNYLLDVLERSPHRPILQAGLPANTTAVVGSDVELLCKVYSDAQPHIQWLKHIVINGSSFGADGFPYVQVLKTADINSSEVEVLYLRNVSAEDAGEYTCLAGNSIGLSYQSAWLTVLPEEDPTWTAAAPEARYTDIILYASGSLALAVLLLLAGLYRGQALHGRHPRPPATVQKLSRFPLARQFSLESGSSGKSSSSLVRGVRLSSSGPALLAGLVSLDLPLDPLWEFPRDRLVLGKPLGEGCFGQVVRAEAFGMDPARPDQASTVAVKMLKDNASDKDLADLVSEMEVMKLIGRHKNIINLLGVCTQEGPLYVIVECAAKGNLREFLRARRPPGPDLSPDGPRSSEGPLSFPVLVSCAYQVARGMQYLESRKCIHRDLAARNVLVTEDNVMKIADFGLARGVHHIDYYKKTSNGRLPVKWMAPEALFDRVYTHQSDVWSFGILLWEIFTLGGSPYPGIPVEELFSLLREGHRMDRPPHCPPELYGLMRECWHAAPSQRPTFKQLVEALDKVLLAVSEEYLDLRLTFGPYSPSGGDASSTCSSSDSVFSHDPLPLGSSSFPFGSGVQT
# T14 sequence (Q8TDR2 whole entry): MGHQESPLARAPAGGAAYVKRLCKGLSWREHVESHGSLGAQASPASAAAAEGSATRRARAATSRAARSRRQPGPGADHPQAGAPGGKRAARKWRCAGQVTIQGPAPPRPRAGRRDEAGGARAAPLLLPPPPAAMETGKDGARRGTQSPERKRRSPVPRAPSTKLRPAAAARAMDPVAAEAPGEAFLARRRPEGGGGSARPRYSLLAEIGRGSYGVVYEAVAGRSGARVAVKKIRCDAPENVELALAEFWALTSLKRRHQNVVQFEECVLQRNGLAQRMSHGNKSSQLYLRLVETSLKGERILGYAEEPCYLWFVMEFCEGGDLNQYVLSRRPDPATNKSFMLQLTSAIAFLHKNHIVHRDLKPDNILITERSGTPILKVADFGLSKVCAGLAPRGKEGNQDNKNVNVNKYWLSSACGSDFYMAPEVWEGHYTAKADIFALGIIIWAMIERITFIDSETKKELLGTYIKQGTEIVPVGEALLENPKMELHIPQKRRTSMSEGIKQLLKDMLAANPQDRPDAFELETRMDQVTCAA
# T11 sequence (Q13177 whole entry): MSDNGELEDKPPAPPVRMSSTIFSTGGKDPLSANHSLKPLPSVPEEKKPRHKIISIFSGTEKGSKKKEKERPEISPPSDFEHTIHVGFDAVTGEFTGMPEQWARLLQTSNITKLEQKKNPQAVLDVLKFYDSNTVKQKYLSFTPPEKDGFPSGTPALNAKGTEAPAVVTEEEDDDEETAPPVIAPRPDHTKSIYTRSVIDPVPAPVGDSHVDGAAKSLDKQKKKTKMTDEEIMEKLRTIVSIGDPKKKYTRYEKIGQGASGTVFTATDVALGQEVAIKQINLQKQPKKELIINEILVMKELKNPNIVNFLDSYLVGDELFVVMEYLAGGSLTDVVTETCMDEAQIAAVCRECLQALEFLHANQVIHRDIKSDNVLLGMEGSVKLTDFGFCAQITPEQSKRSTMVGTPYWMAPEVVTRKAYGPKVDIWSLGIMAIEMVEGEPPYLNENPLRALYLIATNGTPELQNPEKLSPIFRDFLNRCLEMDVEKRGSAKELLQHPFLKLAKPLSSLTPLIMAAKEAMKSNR
Compound,remaining activity at 1 µM [1],remaining activity at 1 µM [2],remaining activity at 1 µM [3],remaining activity at 1 µM [4],remaining activity at 1 µM [5],remaining activity at 1 µM [6],remaining activity at 1 µM [7],remaining activity at 1 µM [8],remaining activity at 1 µM [9],remaining activity at 1 µM [10],remaining activity at 1 µM [11],remaining activity at 1 µM [12],remaining activity at 1 µM [13],remaining activity at 1 µM [14],remaining activity at 1 µM [15],further results
Nc1cc(C(F)(F)F)c(-c2cc(N3CCOCC3)nc(N3CCOCC3)n2)cn1 [Buparlisib],100%,83%,100%,92%,94%,100%,100%,88%,93%,84%,68%,86%,100%,99%,92%,"remaining activity at 10 µM [1, 16]: 100%; remaining activity at 10 µM [2, 16]: 100%; remaining activity at 10 µM [3, 16]: 100%; remaining activity at 10 µM [4, 16]: 100%; remaining activity at 10 µM ([5]; 10 µM, read-out: SRC (% of control at 10 µM)): 100%; remaining activity at 10 µM [6, 16]: 100%; remaining activity at 10 µM [7, 16]: 100%; remaining activity at 10 µM [8, 16]: 100%; remaining activity at 10 µM [9, 16]: 77%; remaining activity at 10 µM [10, 16]: 100%; remaining activity at 10 µM [11, 16]: 83%; remaining activity at 10 µM ([12]; 10 µM, read-out: TAOK1 (% of control at 10 µM)): 82%; remaining activity at 10 µM [13, 16]: 89%; remaining activity at 10 µM ([14]; 10 µM, read-out: STK35 (% of control at 10 µM)): 98%; remaining activity at 10 µM [15, 16]: 100%"
"Cn1c(=O)n(-c2ccc(C(C)(C)C#N)cc2)c2c3cc(-c4cnc5ccccc5c4)ccc3ncc21 [Dactolisib, 2-methyl-2-[4-(3-methyl-2-oxo-8-quinolin-3-yl-2,3-dihydroimidazo[4,5-c]quinolin-1-yl)-phenyl] propionitrile]",73%,80%,–,–,94%,89%,98%,99%,76%,–,–,70%,82%,73%,96%,–
COc1ncc(-c2ccc3nccc(-c4ccnnc4)c3c2)cc1NS(=O)(=O)c1ccc(F)cc1F [Omipalisib],100%,86%,99%,80%,100%,100%,100%,100%,93%,87%,57%,100%,87%,100%,100%,–
"FC(F)c1nc2ccccc2n1-c1nc(N2CCOCC2)nc(N2CCOCC2)n1 [ZSTK474, 2-(difluoromethyl)-1-[4,6-di(4-morpholinyl)-1,3,5-triazin-2-yl]-1H-benzimidazole]",93%,94%,100%,99%,100%,100%,58%,91%,86%,97%,100%,74%,82%,89%,97%,–
